Each structure is given as a SMILES string. Structures can show the parent of a compound that is named as a salt.

A short description of the series: Thin layer chromatography of bile (metabolism) in rats. Type of series: in vivo. The conditions noted are these: rat bile, i.v. Here is the method:
Lesser concentrations were found in the other tissues. Excretion of the two compounds were found only in bile with no compound detected in urine. In bile, TFA-IOP reached a maximum concentration of […] with the recovery of 40% of the injection dose during a 90 minute time period (see FIG. 6).

As for `CCC(Cc1c(I)cc(I)c(NC(=O)C(F)(F)F)c1I)C(=O)O` (centres unmarked) [TFA-IOP, N-trifluoroacetyl-iopanoic acid], the “metabolism, TLC of bile” value is listed as “a vast majority of the injected TFA-IOP was metabolized to a single metabolite”. Moreover, the “nonmetabolized compound in bile” value (TLC) is “No nonmetabolized compound was found”.

For the origin of these results see patent US5250283A, “Organic contrast agent analog and method of making same” (priority 1992, dated 1993).
